Laboratory results reported in the NIST ThermoML archive (doi:10.1016/j.jct.2015.03.015).
± gives the expanded uncertainty stated by the source.

Conditions: Crystal, Transpiration method

| Compound | vapor or sublimation pressure (424 K) [kPa] | vapor or sublimation pressure (434.1 K) [kPa] | vapor or sublimation pressure (440 K) [kPa] | vapor or sublimation pressure (446 K) [kPa] | vapor or sublimation pressure (451.9 K) [kPa] | vapor or sublimation pressure (457.7 K) [kPa] | vapor or sublimation pressure (462.6 K) [kPa] | vapor or sublimation pressure (467.4 K) [kPa] | vapor or sublimation pressure (472.4 K) [kPa] | vapor or sublimation pressure (426.4 K) [kPa] | vapor or sublimation pressure (430.5 K) [kPa] | vapor or sublimation pressure (436.2 K) [kPa] | vapor or sublimation pressure (440.5 K) [kPa] | vapor or sublimation pressure (447.6 K) [kPa] | vapor or sublimation pressure (450.8 K) [kPa] | vapor or sublimation pressure (456.5 K) [kPa] | vapor or sublimation pressure (460.6 K) [kPa] | vapor or sublimation pressure (464.8 K) [kPa] | vapor or sublimation pressure (468.9 K) [kPa] | vapor or sublimation pressure (472.3 K) [kPa] |
| --- | --- | --- | --- | --- | --- | --- | --- | --- | --- | --- | --- | --- | --- | --- | --- | --- | --- | --- | --- | --- |
| O=c1cc[nH]c(=O)[nH]1 [2,4(1H,3H)-pyrimidinedione] | 0.00022 ± 2e-05 | 0.00051 ± 4e-05 | 0.00086 ± 7e-05 | 0.00135 ± 0.0001 | 0.00212 ± 0.00015 | 0.00317 ± 0.0002 | 0.0047 ± 0.0003 | 0.00673 ± 0.00046 | 0.00905 ± 0.0006 |  |  |  |  |  |  |  |  |  |  |  |
| Cc1c[nH]c(=O)[nH]c1=O [thymine] |  |  |  |  |  |  |  |  |  | 0.00061 ± 5e-05 | 0.00086 ± 7e-05 | 0.00134 ± 0.0001 | 0.00183 ± 0.00012 | 0.00314 ± 0.0002 | 0.00397 ± 0.00025 | 0.00601 ± 0.00043 | 0.00813 ± 0.00056 | 0.01106 ± 0.00073 | 0.01464 ± 0.00095 | 0.01767 ± 0.0011 |
